Source: PMC7481357, “N-terminal Myristoylation Enhanced the Antimicrobial Activity of Antimicrobial Peptide PMAP-36PW” (Frontiers in Cellular and Infection Microbiology, 2020)
Residues, ends and D or L forms follow the SMILES beside them. *: point of attachment. Myristoyl = CCCCCCCCCCCCCC(=O)*

System: S. aureus ATCC 25923
Type: cell-based, Staphylococcus aureus
Conditions: ATCC 25923, 1 h
Procedure: The effects of abiotic factors on the antibacterial activity of Myr-36PW were investigated by MIC assay (Xi et al., [2013]; Zhong et al., [2019]). S. aureus ATCC 25923 and P. aeruginosa GIM 1.551 overnight cultures were diluted to 1 × 10^6 CFU/mL, and the MICs of peptides in MHB with different concentration of physiological salts (150 mM NaCL, 2 mM CaCL2) were determined. And after the peptides incubated in 10% mice serum for 1 h at 37°C, MICs of peptides against S. aureus ATCC 25923 and P. aeruginosa GIM 1.551 were determined. The MICs in MHB in the absence of physiological salts and serum were used as the control group.
Salt and serum stability in vitro were indicated by MIC assay. The concentrations of NaCl and CaCl2 were physiological concentration. 10% mice serum was inactivated by heat treatment for 15 min at 60 ℃。The control group was measured in the absence of physiological salts or serum in MHB.

## CCCCCCCCCCCCCC(=O)NCC(=O)NCC(=O)N[C@@H](CCCNC(=N)N)C(=O)N[C@@H](Cc1ccccc1)C(=O)N[C@@H](CCCNC(=N)N)C(=O)N[C@@H](CCCNC(=N)N)C(=O)N[C@@H](CC(C)C)C(=O)N[C@@H](CCCNC(=N)N)C(=O)N[C@@H](CCCCN)C(=O)N[C@@H](CCCCN)C(=O)N[C@H](C(=O)N[C@@H](CCCNC(=N)N)C(=O)N[C@@H](CCCCN)C(=O)N[C@@H](CCCNC(=N)N)C(=O)N[C@@H](CC(C)C)C(=O)N[C@@H](CCCCN)C(=O)N[C@@H](CCCCN)C(=O)N[C@H](C(=O)NCC(=O)N[C@@H](CCCCN)C(=O)N[C@H](C(=O)N[C@@H](CC(C)C)C(=O)N[C@@H](CCCCN)C(=O)N[C@@H](Cc1c[nH]c2ccccc12)C(=O)N[C@H](C(=O)N[C@@H](Cc1c[nH]c2ccccc12)C(=O)N[C@@H](Cc1c[nH]c2ccccc12)C(=O)N[C@H](C(=O)N[C@H](C(=O)NCC(=O)N[C@@H](CO)C(=O)N[C@H](C(=O)N1CCC[C@H]1C(=O)N[C@@H](CC(C)C)C(=O)NCC(=O)N[C@@H](CS)C(=O)NCC(=O)O)[C@@H](C)CC)C(C)C)[C@@H](C)CC)[C@@H](C)CC)C(C)C)[C@@H](C)CC)[C@@H](C)O [Myr-36PW] (Myristoyl-GGRFRRLRKKTRKRLKKIGKVLKWIWWIVGSIPLGCG-OH; C-terminus assumed)
  MICs, Control: 0.0156 µg/mL
  MICs, Serum: 0.0313 µg/mL
